Experimental data: PubChem BioAssay AID330 (DTP/NCI, 2004)
Several values for one entry are separate records, joined by “and”; a condition that tells them apart may be missing. Equal entries are not always repeated. Inconclusive results and toxic doses are left out.

System: P388 leukemia ip, CD2F1 mice, survival T/C
Test: NCI In Vivo Anticancer Drug Screen. Data for tumor model P388 Leukemia (intraperitoneal) in CD2F1 (CDF1) mice
Settings: endpoint: median survival time, higher = longer survival
In short: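 Mice carrying the transplanted tumor received test compound or vehicle. Survival was recorded in each group, and the value is the treated-group measurement divided by that of the vehicle-treated control group.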

[1] = dose: 50.0 mg/kg/injection, schedule: Q01DX005 (ip), vehicle: saline with Tween-80
[2] = dose: 100.0 mg/kg/injection, schedule: Q01DX005 (ip), vehicle: saline with Tween-80
[3] = dose: 200.0 mg/kg/injection, schedule: Q01DX005 (ip), vehicle: saline with Tween-80
[4] = dose: 100.0 mg/kg/injection, schedule: Q01DX009 (ip), vehicle: saline with Tween-80
[5] = dose: 200.0 mg/kg/injection, schedule: Q01DX009 (ip), vehicle: saline with Tween-80

In the case of `ClC(Cl)Cl`, the T/C (dose: 0.25 % in 0.5 ml injection vol, schedule: Q01DX009 (ip), vehicle: water) is reported as 100 % of control, the T/C (dose: 0.5 % in 0.5 ml injection vol, schedule: Q01DX009 (ip), vehicle: water) is reported as 96 % of control and the T/C (dose: 1.0 % in 0.5 ml injection vol, schedule: Q01DX009 (ip), vehicle: water) is reported as 100 % of control.
`CCOc1c(N=Nc2ccc(Br)cc2)c(C)nn1C(=S)S` was tested, and the T/C (dose: 60.0 mg/kg/injection, schedule: Q01DX005 (ip), vehicle: Klucel (hydroxypropylcellulose) (HPC)) was 105 % of control and the T/C (dose: 120.0 mg/kg/injection, schedule: Q01DX005 (ip), vehicle: Klucel (hydroxypropylcellulose) (HPC)) was 109 % of control.
With `CC(C)CC(C(=O)O)N1C(=O)C=CC1=O` (configuration not stated) the T/C (dose: 12.5 mg/kg/injection, schedule: Q01DX009 (ip), vehicle: Klucel (hydroxypropylcellulose) (HPC)) was 93 % of control and the T/C (dose: 25.0 mg/kg/injection, schedule: Q01DX009 (ip), vehicle: Klucel (hydroxypropylcellulose) (HPC)) was 107 % of control.
In the case of `COc1ccc2c(c1OC)CC(C(=O)O)=C2C`, the T/C [1] is reported as 99 % of control, the T/C [2] is reported as 94 % of control and the T/C [3] is reported as 99 % of control.
With `Cc1nc(N)[nH]c(=O)c1CCCNc1ccc(C(=O)NC(CCC(=O)O)C(=O)O)cc1` (configuration not stated) the T/C (dose: 50.0 mg/kg/injection, schedule: Q01DX005 (ip), vehicle: Klucel (hydroxypropylcellulose) (HPC)) was 100 % of control, the T/C (dose: 100.0 mg/kg/injection, schedule: Q01DX005 (ip), vehicle: Klucel (hydroxypropylcellulose) (HPC)) was 97 % of control and the T/C (dose: 200.0 mg/kg/injection, schedule: Q01DX005 (ip), vehicle: Klucel (hydroxypropylcellulose) (HPC)) was 100 % of control.
For `CN(/N=C\c1ccccc1)C(=N)N(C)/N=C/c1ccccc1`, the T/C (dose: 100.0 mg/kg/injection, schedule: Q01DX001 (ip), vehicle: Klucel (hydroxypropylcellulose) (HPC)) was 91 % of control and the T/C (dose: 200.0 mg/kg/injection, schedule: Q01DX001 (ip), vehicle: Klucel (hydroxypropylcellulose) (HPC)) was 96 % of control.
For `COc1c(Cl)c2c(c(OC)c1OC)-c1ccc(OC)c(=O)cc1C(NC(C)=O)CC2` (configuration not stated), the T/C (dose: 0.78 mg/kg/injection, schedule: Q01DX009 (ip), vehicle: Klucel (hydroxypropylcellulose) (HPC)) was 151 % of control, the T/C (dose: 1.56 mg/kg/injection, schedule: Q01DX009 (ip), vehicle: Klucel (hydroxypropylcellulose) (HPC)) was 179 % of control and 188 % of control and the T/C (dose: 3.12 mg/kg/injection, schedule: Q01DX009 (ip), vehicle: Klucel (hydroxypropylcellulose) (HPC)) was 199 % of control.
With `CC(C)NC(=O)OCc1c(COC(=O)NC(C)C)c(-c2ccc(Cl)c(Cl)c2)n2c1C[C@@H](OC(=O)CCC(=O)O)C2` (tested in a mixture with another compound) the T/C (dose: 12.5 mg/kg/injection, schedule: Q01DX005 (ip), vehicle: water) was 106 % of control and 107 % of control, the T/C (dose: 25.0 mg/kg/injection, schedule: Q01DX005 (ip), vehicle: water) was 107 % of control and 108 % of control and the T/C (dose: 50.0 mg/kg/injection, schedule: Q01DX005 (ip), vehicle: water) was 111 % of control and 123 % of control. The T/C (dose: 50.0 mg/kg/injection, schedule: Q04DX002 (ip), vehicle: water) was 103 % of control, the T/C (dose: 100.0 mg/kg/injection, schedule: Q04DX002 (ip), vehicle: water) was 111 % of control and the T/C (dose: 200.0 mg/kg/injection, schedule: Q04DX002 (ip), vehicle: water) was 107 % of control.
For `CCOC(=O)c1c(C(C)=O)cnc2c(C#N)cnn12`, the T/C [1] was 98 % of control, the T/C [2] was 98 % of control and the T/C [3] was 91 % of control.
`O=C(CCl)NC(=O)CCl` was tested, and the T/C (dose: 25.0 mg/kg/injection, schedule: Q01DX009 (ip), vehicle: saline with Tween-80) was 90 % of control.
For `COc1ccc2c(c1)CCCC(Br)C2=O` (configuration not stated), the T/C (dose: 25.0 mg/kg/injection, schedule: Q01DX009 (ip), vehicle: distilled water + alcohol) was 107 % of control, the T/C (dose: 50.0 mg/kg/injection, schedule: Q01DX009 (ip), vehicle: distilled water + alcohol) was 105 % of control and the T/C (dose: 100.0 mg/kg/injection, schedule: Q01DX009 (ip), vehicle: distilled water + alcohol) was 120 % of control. For the same molecule, the T/C (dose: 200.0 mg/kg/injection, schedule: Q01DX009 (ip), vehicle: distilled water + alcohol) was 122 % of control.
For `CN=C(N)N/N=C/COc1ccc(C)cc1`, the T/C (dose: 60.0 mg/kg/injection, schedule: Q01DX005 (ip), vehicle: saline) was 92 % of control and the T/C (dose: 120.0 mg/kg/injection, schedule: Q01DX005 (ip), vehicle: saline) was 94 % of control.
With `CSCNC(=O)Nc1ccccc1` the T/C [1] was 98 % of control, the T/C [2] was 100 % of control and the T/C [3] was 104 % of control.
With `OCCSc1c(Cl)c(Cl)c(Cl)c(Cl)c1Cl` the T/C [4] was 106 % of control and the T/C [5] was 113 % of control.
With `COc1cc(OC)c(OC)cc1/C=C/c1ccc2ccccc2n1` the T/C [4] was 110 % of control, the T/C [5] was 110 % of control and the T/C (dose: 400.0 mg/kg/injection, schedule: Q01DX009 (ip), vehicle: saline with Tween-80) was 110 % of control.
